From US11840533B2, “Pyridinone-based epigenetic modifiers and uses thereof” (THE BOARD OF TRUSTEES OF THE UNIVERSITY OF ILLINOIS, priority 2017, dated 2023)

Tested on: fulvestrant-resistant MCF7:5C-FR cells
Assay: Fulvestrant-resistant breast cancer cell viability (cell proliferation) assay
Assay type: cell-based
Conditions: 120 h, growth inhibition in fulvestrant-resistant MCF-7:CFR cells, 120 hrs
Procedure, shortened: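 Cells were treated the day after seeding with compounds at 3 nM to 10 uM for 120 h, with 0.1% DMSO vehicle and 1 uM JQ1 as positive control. Hoechst 33342-stained (5 μg/ml, 90 min, 37 C) nuclei were imaged and counted, and cell numbers normalized to vehicle.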

| IC50 [nM] | Compound |
| --- | --- |
| < 1000 | CS(=O)(=O)Nc1cc(-c2cn(CC3CO3)c3c(O)nccc23)cc2c1ccn2Cc1ccccc1 (stereo not shown) [Compound 98, N-(1-benzyl-6-(7-hydroxy-1-(oxiran-2-ylmethyl)-1H-pyrrolo[2,3-c]pyridin-3-yl)-1H-indol-4-yl)methanesulfonamide] |
| < 1000 | CCS(=O)(=O)Nc1cc(-c2cn(C)c3c(O)nccc23)cc2c1ccn2[C@H](c1ccccc1)C1CCOCC1 [Compound 91, (S)-N-(6-(7-hydroxy-1-methyl-1H-pyrrolo[2,3-c]pyridin-3-yl)-1-(phenyl(tetrahydro-2H-pyran-4-yl)methyl)-1H-indol-4-yl)ethanesulfonamide] |
| 13 | Cn1cc(-c2cc(NS(C)(=O)=O)c3ccn(C(C)(c4ccccn4)c4ccccn4)c3c2)c2cc[nH]c(=O)c21 [Compound 132, N-(1-(1,1-di(pyridin-2-yl)ethyl)-6-(1-methyl-7-oxo-6,7-dihydro-1H-pyrrolo[2,3-c]pyridin-3-yl)-1H-indol-4-yl)methanesulfonamide] |
| > 100 | CCS(=O)(=O)Nc1cc(-c2cn(C)c3c(O)nccc23)cc2c1ccn2Cc1cc(Cl)c(O)cc1C [Compound 55, N-(1-(5-chloro-4-hydroxy-2-methylbenzyl)-6-(7-hydroxy-1-methyl-1H-pyrrolo[2,3-c]pyridin-3-yl)-1H-indol-4-yl)ethanesulfonamide] |
| < 1000 | Cc1cc(F)cc(C)c1Cn1ccc2c(NS(C)(=O)=O)cc(-c3cn(C)c4c(=O)[nH]ccc34)cc21 [Compound 101, N-(1-(4-fluoro-2,6-dimethylbenzyl)-6-(1-methyl-7-oxo-6,7-dihydro-1H-pyrrolo[2,3-c]pyridin-3-yl)-1H-indol-4-yl)methanesulfonamide] |
| < 500 | CCS(=O)(=O)Nc1cc(-c2cn(C)c3c(O)nccc23)cc2c1ccn2Cc1ccc(F)cc1F [Compound 29, N-(1-(2,4-difluorobenzyl)-6-(7-hydroxy-1-methyl-1H-pyrrolo[2,3-c]pyridin-3-yl)-1H-indol-4-yl)ethanesulfonamide] |
| < 1000 | CCS(=O)(=O)Nc1cc(-c2cn(CCCl)c3c(O)nccc23)cc2c1ccn2Cc1ccc(F)cc1F [Compound 85, N-(6-(1-(2-chloroethyl)-7-hydroxy-1H-pyrrolo[2,3-c]pyridin-3-yl)-1-(2,4-difluorobenzyl)-1H-indol-4-yl)ethanesulfonamide] |
| > 100 | CCS(=O)(=O)Nc1cc(-c2cn(CCCl)c3c(O)nccc23)cc2c1ccn2Cc1ccc(F)cc1C [Compound 81, N-(6-(1-(2-chloroethyl)-7-hydroxy-1H-pyrrolo[2,3-c]pyridin-3-yl)-1-(4-fluoro-2-methylbenzyl)-1H-indol-4-yl)ethanesulfonamide] |
| < 1000 | CCS(=O)(=O)Nc1cc(-c2cn(C)c3c(O)nccc23)cc2c1ccn2Cc1ccc(Cl)c(Cl)c1 [Compound 50, N-(1-(3,4-dichlorobenzyl)-6-(7-hydroxy-1-methyl-1H-pyrrolo[2,3-c]pyridin-3-yl)-1H-indol-4-yl)ethanesulfonamide] |
| > 100 | CCS(=O)(=O)Nc1cc(-c2cn(C)c3c(O)nccc23)cc2c1ccn2Cc1ccccc1C(F)(F)F [Compound 59, N-(6-(7-hydroxy-1-methyl-1H-pyrrolo[2,3-c]pyridin-3-yl)-1-(2-(trifluoromethyl)benzyl)-1H-indol-4-yl)ethanesulfonamide] |
| 62 | Cn1cc(-c2cc(NS(C)(=O)=O)c3ccn(CC4CC(F)(F)C4)c3c2)c2cc[nH]c(=O)c21 [Compound 73, N-(1-((3,3-difluorocyclobutyl)methyl)-6-(1-methyl-7-oxo-6,7-dihydro-1H-pyrrolo[2,3-c]pyridin-3-yl)-1H-indol-4-yl)methanesulfonamide] |
| > 1000 | Cn1cc(-c2cn(CC(N)=O)c3ccc(-c4ccc(F)cc4)cc23)c2ccnc(O)c21 [Compound 16, 2-(5-(4-fluorophenyl)-3-(7-hydroxy-1-methyl-1H-pyrrolo[2,3-c]pyridin-3-yl)-1H-indol-1-yl)acetamide] |
| < 1000 | CCS(=O)(=O)Nc1cc(-c2cn(C)c3c(O)nccc23)cc2c1ccn2Cc1cc(Cl)ccc1OC [Compound 51, N-(1-(5-chloro-2-methoxybenzyl)-6-(7-hydroxy-1-methyl-1H-pyrrolo[2,3-c]pyridin-3-yl)-1H-indol-4-yl)ethanesulfonamide] |
| > 1000 | CNS(=O)(=O)CCc1ccc(OCc2ccc(F)cc2)cc1C(=O)c1cn(C)c2c(O)nccc12 [Compound 13, 2-(4-((4-fluorobenzyl)oxy)-2-(7-hydroxy-1-methyl-1H-pyrrolo[2,3-c]pyridine-3-carbonyl)phenyl)-N-methylethane-1-sulfonamide] |
| < 1000 | CS(=O)(=O)Nc1cc(-c2cn(CC(=O)CCl)c3c(O)nccc23)cc2c1ccn2Cc1ccc(F)cc1 [Compound 90, N-(6-(1-(3-chloro-2-oxopropyl)-7-hydroxy-1H-pyrrolo[2,3-c]pyridin-3-yl)-1-(4-fluorobenzyl)-1H-indol-4-yl)methanesulfonamide] |
| > 100 | CCS(=O)(=O)Nc1cc(-c2cn(C)c3c(O)nccc23)cc2c1ccn2Cc1cc(Cl)cc(CCN(C)C)c1 [Compound 57, N-(1-(3-chloro-5-(2-(dimethylamino)ethyl)benzyl)-6-(7-hydroxy-1-methyl-1H-pyrrolo[2,3-c]pyridin-3-yl)-1H-indol-4-yl)ethanesulfonamide] |

The next lines start with the compound.

| Compound | IC50 [nM] |
| --- | --- |
| Cn1cc(-c2cc(C(C)(C)O)c3ccn(C(C)(c4nccs4)c4nccs4)c3c2)c2cc[nH]c(=O)c21 [Compound 111, 3-(1-(1,1-di(thiazol-2-yl)ethyl)-4-(2-hydroxypropan-2-yl)-1H-indol-6-yl)-1-methyl-1,6-dihydro-7H-pyrrolo[2,3-c]pyridin-7-one] | < 1000 |
| Cn1cc(-c2nc3c(NS(C)(=O)=O)cccc3n2[C@@H](c2ccccc2)C2CCOCC2)c2ccnc(O)c21 [Compound 68, (R)-N-(2-(7-hydroxy-1-methyl-1H-pyrrolo[2,3-c]pyridin-3-yl)-1-(phenyl(tetrahydro-2H-pyran-4-yl)methyl)-1H-benzo[d]imidaol-4-yl)methanesulfonamide] | < 1000 |
| Cn1cc(-c2cc3c(NS(C)(=O)=O)cccc3n2[C@H](c2ccccc2)C2CCOCC2)c2ccnc(O)c21 [Compound 122, (S)-N-(2-(7-hydroxy-1-methyl-1H-pyrrolo[2,3-c]pyridin-3-yl)-1-(phenyl(tetrahydro-2H-pyran-4-yl)methyl)-1H-indol-4-yl)methanesulfonamide] | < 1000 |
| CCS(=O)(=O)c1cccc2c1cc(-c1cn(C)c3c(O)nccc13)n2[C@@H](c1ccccc1)C1CCOCC1 [Compound 121, (R)-3-(4-(ethylsulfonyl)-1-(phenyl(tetrahydro-2H-pyran-4-yl)methyl)-1H-indol-2-yl)-1-methyl-1H-pyrrolo[2,3-c]pyridin-7-ol] | < 1000 |
| Cn1cc(-c2cc(C(C)(C)O)c3ccn(CC4(C)COC4)c3c2)c2cc[nH]c(=O)c21 [Compound 105, 3-(4-(2-hydroxypropan-2-yl)-1-((3-methyloxetan-3-yl)methyl)-1H-indol-6-yl)-1-methyl-1,6-dihydro-7H-pyrrolo[2,3-c]pyridin-7-one] | < 1000 |
| CCS(=O)(=O)Nc1cccc2c1nc(-c1cn(C)c3c(O)nccc13)n2Cc1ccccc1 [Compound 60, N-(1-benzyl-2-(7-hydroxy-1-methyl-1H-pyrrolo[2,3-c]pyridin-3-yl)-1H-benzo[d]imidazol-4-yl)ethanesulfonamide] | > 100 |
| CC(C)C(=O)Nc1cccc2c1cc(-c1cn(C)c3c(O)nccc13)n2[C@H](c1ccccc1)C1CCOCC1 [Compound 125, (S)-N-(2-(7-hydroxy-1-methyl-1H-pyrrolo[2,3-c]pyridin-3-yl)-1-(phenyl(tetrahydro-2H-pyran-4-yl)methyl)-1H-indol-4-yl)isobutyramide] | < 1000 |
| Cn1cc(-c2cc(C(C)(C)O)c3ccn(CC4CC(F)(F)C4)c3c2)c2cc[nH]c(=O)c21 [Compound 106, 3-(1-((3,3-difluorocyclobutyl)methyl)-4-(2-hydroxypropan-2-yl)-1H-indol-6-yl)-1-methyl-1,6-dihydro-7H-pyrrolo[2,3-c]pyridin-7-one] | < 1000 |
| Cn1cc(C(OCC2CCC2)c2cccc(-c3ccc(F)cc3)c2)c2ccnc(O)c21 (stereo not shown) [Compound 11, 3-((cyclobutylmethoxy)(4′-fluoro-[1,1′-biphenyl]-3-yl)methyl)-1-methyl-1H-pyrrolo[2,3-c]pyridin-7-ol] | > 5000 |
| CC(=O)Nc1cccc2c1cc(-c1cn(C)c3c(O)nccc13)n2[C@@H](c1ccccc1)C1CCOCC1 [Compound 118, (R)-N-(2-(7-hydroxy-1-methyl-1H-pyrrolo[2,3-c]pyridin-3-yl)-1-(phenyl(tetrahydro-2H-pyran-4-yl)methyl)-1H-indol-4-yl)acetamide] | < 1000 |
| CCS(=O)(=O)Nc1cccc2c1nc(-c1cn(C)c3c(O)nccc13)n2Cc1ccccc1C(F)(F)F [Compound 62, N-(2-(7-hydroxy-1-methyl-1H-pyrrolo[2,3-c]pyridin-3-yl)-1-(2-(trifluoromethyl)benzyl)-1H-benzo[d]imidaol-4-yl)ethanesulfonamide] | > 100 |
| Cn1cc(C(=O)c2cccc(-c3ccc(F)cc3)c2)c2ccnc(O)c21 [Compound 2, (4′-fluoro-[1,1′-biphenyl]-3-yl)(7-hydroxy-1-methyl-1H-pyrrolo[2,3-c]pyridin-3-yl)methanone] | 157 |
| CCS(=O)(=O)Nc1cccc2c1nc(-c1cn(C)c3c(O)nccc13)n2Cc1c(C)cc(F)cc1C [Compound 42, N-(1-(4-fluoro-2,6-dimethylbenzyl)-2-(7-hydroxy-1-methyl-1H-pyrrolo[2,3-c]pyridin-3-yl)-1H-benzo[d]imidazol-4-yl)ethanesulfonamide] | < 1000 |
| Cn1cc(-c2c[nH]c3ccc(Br)cc23)c2ccnc(O)c21 [Compound 19, 3-(5-bromo-1H-indol-3-yl)-1-methyl-1H-pyrrolo[2,3-c]pyridin-7-ol] | > 1000 |
| CCC(c1ccccn1)(c1ccccn1)n1c(-c2cn(C)c3c(O)nccc23)nc2c(NS(=O)(=O)CC)cccc21 [Compound 127, N-(1-(1,1-di(pyridin-2-yl)propyl)-2-(7-hydroxy-1-methyl-1H-pyrrolo[2,3-c]pyridin-3-yl)-1H-benzo[d]imidazol-4-yl)ethanesulfonamide] | < 1000 |
